Experimental findings from US4431655A, “2,4-Disubstituted-1,2,5-thiadiazol-3(2H)-one antimicrobials” (Merck & Co., Inc., priority 1982, dated 1984) are described below.

The structures appear in SMILES notation. In brackets after ≈: the same amount, converted by molar mass.

The nature of data set [1]: Ring stability to hydrolysis, UV absorption changes with time. It counts as physicochemical. The following applies: equal volumes methanol-aqueous phosphate buffer (pH 8); for remaining at 1 h: read-out: % Compound Remaining after 1 hr; for remaining at 16 h: read-out: % Compound Remaining after 16 hr; for remaining at 48 h: read-out: % Compound Remaining after 48 hr; for remaining at 165 h: read-out: % Compound Remaining after 165 hr; for remaining at 336 h: read-out: % Compound Remaining after 336 hr. The method, then:
Solutions of these compounds were prepared using equal volumes of methanol-aqueous phosphate buffer (pH 8), and decomposition by cleavage of the heterocyclic ring was monitored using ultraviolet absorption changes with time.

The test system of data set [2] is Cladosporium Fulvum MF 3238. As to the kind of experiment: In vitro minimal inhibitory concentration in nutrient agar. It counts as cell-based. The following applies: Fulvia fulva.
Data set [3] relates to Thielaviopsis basicola MF 3147. The description is as above. The class given is cell-based. The settings on record: Berkeleyomyces basicola, MF3147.
The test system of data set [4] is Diaperthe phaseolorum MF 4668. The data set is described as above. The class given is cell-based.
The subject of data set [5] is Verticillium dahliae MF 2416. The data set is described as above. The following applies: MF2416. The class given is cell-based.
Data set [6] has as its system Sclerotinia sclerotiorum MF 4739. The description is as above. The class given is cell-based. The following applies: MF4739.
In a further data set the test system is Botrytis cinerea MF 4803. The description is as above. It counts as cell-based. The settings on record: MF4803.
A further data set deals with Aspergillus niger MF 11. The data set is described as above. The class given is cell-based. The settings on record: MF11.
Data set [7] deals with Penicillium digitatum MF 4590. The data set is described as above. It counts as cell-based. The following applies: MF4590.
Data set [8] relates to Colletotrichum lagenarium MF 4800. The data set is described as above. The class given is cell-based. The settings on record: Colletotrichum orbiculare, MF4800.
Data set [9] deals with Helminthosporium oryzae MF 4806. The data set is described as above. It counts as cell-based. The settings on record: Bipolaris oryzae, MF4806.
Data set [10] concerns Phytophthora cambivora MF 3753. Described as above. The class given is cell-based.
The subject of data set [11] is Rhizoctonia solani MF 4579. The data set is described as above. It counts as cell-based. The settings on record: MF4579.
The test system of data set [12] is Helminthosporium maydis MF 4775. The description is as above. It counts as cell-based. The following applies: Bipolaris maydis, MF4775.
Another data set concerns Monilia nigra MF 3084. The description is as above. The class given is cell-based. The following applies: Moniliella suaveolens, MF3084.
For data set [13], the system named is Fusarium oxysporum MF 3413. Described as above. It counts as cell-based. The settings on record: MF3413.
The subject of data set [14] is Cercospora beticola MF 4571. Described as above. It counts as cell-based. The settings on record: MF4571.
The subject of the next data set is Alternaria citri MF 2970. Described as above. It counts as cell-based. The settings on record: MF2970.

As a reminder, the fraction remaining is what is left of the initial amount, in per cent. For the compound `CCCc1nsn(Cc2ccccc2)c1=O`, in data set [1], the “% Compound Remaining after 0 hr” value was 100%, the share remaining at 1 h was found to be 100%, the share remaining at 16 h came to 100% and the fraction remaining at 48 h came out at 100%. In addition, in data set [1], the share remaining at 165 h came out at 90% and the share remaining at 336 h is 90%.
On to `O=c1cnsn1Cc1ccccc1`, for which, in [1], the “% Compound Remaining after 0 hr” value is reported as 100%, the share remaining at 1 h amounted to 100%, the share remaining at 16 h is 96% and the share remaining at 48 h was 80%. In [1], the share remaining at 165 h is 50% and the share remaining at 336 h is 26%.
Broadly, the MIC is the lowest concentration that inhibits growth of the organism. Higher therefore signals a less susceptible organism. Turning to `Cc1nsn(Cc2ccc(Cl)cc2)c1=O` [2-[(4-Chlorophenyl)methyl]-4-methyl-1,2,5-thiadiazol-3(2H)-one], the MIC in data set [2] was found to be 1 µg/mL (≈ 4.15 µM); in [3], 4 µg/mL (≈ 16.6 µM); in data set [4], 0.4 µg/mL (≈ 1.66 µM); in data set [5] it was 4 µg/mL (≈ 16.6 µM); in data set [6] it was 0.8 µg/mL (≈ 3.32 µM); in the data set with Botrytis cinerea MF 4803, 1 µg/mL (≈ 4.15 µM). The MIC in the data set on Aspergillus niger MF 11 is 4 µg/mL (≈ 16.6 µM); in data set [7], 4 µg/mL (≈ 16.6 µM); in data set [8], 2 µg/mL (≈ 8.31 µM); in data set [9], 1 µg/mL (≈ 4.15 µM); in data set [10], 2 µg/mL (≈ 8.31 µM); in [11], 8 µg/mL (≈ 33.2 µM). Further, the MIC in data set [12] stood at 0.4 µg/mL (≈ 1.66 µM); with Monilia nigra MF 3084 it was 2 µg/mL (≈ 8.31 µM); in data set [13], 4 µg/mL (≈ 16.6 µM); in data set [14] it was 1 µg/mL (≈ 4.15 µM); with Alternaria citri MF 2970 it was 4 µg/mL (≈ 16.6 µM).
Take `CCCCCCn1snc(C)c1=O` [CH3, n-C6 H13, 2-n-Hexyl-4-methyl-1,2,5-thiadiazol-3(2H)-one]: in data set [1], the “% Compound Remaining after 0 hr” value came to 100%, the fraction remaining at 1 h amounted to 100%, the share remaining at 16 h is 100% and the fraction remaining at 48 h was 100%. In data set [1], the fraction remaining at 165 h was 100% and the amount remaining at 336 h is 99%.
In the case of `Cc1nsn(Cc2ccc(Cl)cc2)c1=O` [drawing 23], in data set [1], the “% Compound Remaining after 0 hr” value amounted to 100%, the amount remaining at 1 h came to 100%, the amount remaining at 16 h worked out at 100% and the share remaining at 48 h came to 97%. In data set [1], the amount remaining at 165 h was 93% and the amount remaining at 336 h is 91%.
With `O=c1c(Cl)nsn1Cc1ccccc1` [reference compound], in data set [1], the “% Compound Remaining after 0 hr” value is 100%, the share remaining at 1 h was determined as 48%, the share remaining at 16 h is 6% and the amount remaining at 48 h came out at 0%.
As to `O=c1c(Cl)nsn1Cc1ccc(Cl)cc1` [reference compound], in [1], the “% Compound Remaining after 0 hr” value came to 100%, the amount remaining at 16 h was found to be 0% and the fraction remaining at 48 h turned out to be 0%.
